Assay results taken from patent US20100184807A1, “Methods to inhibit tumor cell growth by using proton pump inhibitors” (Bio-Quant, Inc., priority 2008, published 2010).

Assays:
Type in all cases: cell-based
P116 (intestinal cancer) = assay: MTT tumor cell growth assay; details: P116 cells, lansoprazole 1-100 μM, 48 hours
Protocol: (§1) In one study, adherent cells were plated approximately 16-24 hours before the day of the experiment in 180 μl growth media. On the day of the experiment, the plated adherent cells were analyzed and counted and suspension cells were plated in 180 μl growth media. 10× lansoprazole compounds and vehicle was prepared. The 10× lansoprazole compounds were prepared by diluting lansoprazole to final concentrations of 100 μM, 30 μM, 10 μM, 3 μM, and 1 μM. A vehicle was prepared by preparing a solution of PBS, equivalent to the volume used for 10 μM lansoprazole wherein the 1× solution constitutes ˜0.06% PBS. 10 μl of the various 10× lansoprazole solutions and the vehicle were added to the cells. The cells were incubated at 37° C., 5% CO2 for 48 hours. The media was then aspirated. The cell suspension was then spun at 1500 RPM for 10 minutes. The media was slowly removed. 200 μl of MTT solution was added to each well with a concentration of 0.863 mg/ml MTT in the growth media. The cells were incubated at 37° C., 5% CO2 for 4 hours and the medium is then aspirated. The plate containing the cell suspension was then spun at 1500 RPM for 10 minutes. The media was slowly removed using a multichannel pipettor. 100 μl of DMSO was then added to each well. The cells were incubated at 37° C., 5% CO2 for 5 minutes and the absorbance was obtained at 560 nm using a Dynex Opsys MR plate reader. The cells used for this procedure were the following cell lines: IGROV1 (ovarian cancer); OVCAR 8 (ovarian cancer); ES-2 (ovarian cancer); CAOV3 (ovarian cancer); OVCAR5 (ovarian cancer); SUDHL4 (lymphoma); RPMI8226 (myeloma); RPMI6666 (Hodgkin's lymphoma); NC37 (lymphoma); GDM-1 (leukemia); MC/CAR (prostate cancer); DU-145 (prostate cancer), J45-01 (leukemia), MOLT3 (leukemia), HUT78, J-gamma-1 (leukemia), MCF7 […], COL0205 (colon cancer), HL60 CLONE 15 (leukemia), T47D (breast cancer), P116 (intestinal cancer), KU812 (leukemia), SW620 (colon cancer), MK92-M1 (lymphoma), MV-4-11 (leukemia), HS578T (breast cancer), HT29 (colon cancer), HCT 116 (colon cancer), CAKI-1 (kidney cancer), A549 (lung cancer), H460 (lung cancer), A3 (colon cancer), MDA-MB231 […], MALME 3M (melanoma), RXF393 (kidney cancer), RS4.11 (leukemia), PC3 (prostate cancer), OVCAR3 (ovarian cancer), MDA-MB435 (melanoma), HUT102 (lymphoma), HL60 (leukemia), CCRF-CEM (leukemia), HUT78 (lymphoma), 786-O (kidney cancer), ACHN (kidney cancer), A498 (kidney cancer), H226 (lung cancer), H522 (lung cancer), HOP92 (lung cancer), SNB 19 (brain cancer), OVCAR4 (ovarian cancer), H9 (lymphoma), UO-31 (kidney cancer), HH (lymphoma), DAUDI (leukemia), LOXIMVI (melanoma), NAMALWA (lymphoma), EKVX (lung cancer), DOHH2 (lymphoma), SNB75 (brain cancer), SKMEL28 (melanoma), SKMEL5 (melanoma), SKMEL2 (melanoma), M14 (melanoma), UACC 257 (melanoma), H332M (lung cancer), KM12 (colon cancer), HCC2998 (colon cancer), G401 (kidney cancer), RS1184 (lymphoma), MC116 (leukemia), MOLT4 (leukemia), JM1 (liver cancer), HOP-62 (lung cancer), HCT-15 (colon cancer), SF-539 (brain cancer), SF295 (brain cancer), ST486 (lymphoma), U251 (brain cancer), and UACC-62 (melanoma).

JMI = assay: MTT tumor cell growth assay; details: JMI cells, lansoprazole 1-100 μM, 48 hours
Protocol: as §1

HCC2998 (colon cancer) = assay: MTT tumor cell growth assay; details: HCC2998 cells, lansoprazole 1-100 μM, 48 hours
Protocol: as §1

CCRF-CEM (leukemia) = assay: MTT tumor cell growth assay; details: CCRF-CEM cells, lansoprazole 1-100 μM, 48 hours
Protocol: as §1

HL60 (leukemia) = assay: MTT tumor cell growth assay; details: HL60 cells, lansoprazole 1-100 μM, 48 hours
Protocol: as §1

OVCAR8 (ovarian cancer) = assay: MTT tumor cell growth assay; details: OVCAR8 cells, lansoprazole 1-100 μM, 48 hours
Protocol: as §1

RS4.11 (leukemia) = assay: MTT tumor cell growth assay; details: RS4.11 cells, lansoprazole 1-100 μM, 48 hours
Protocol: as §1

A549 (lung cancer) = assay: MTT tumor cell growth assay; details: A549 cells, lansoprazole 1-100 μM, 48 hours
Protocol: as §1

UO-31 (kidney cancer) = assay: MTT tumor cell growth assay; details: UO-31 cells, lansoprazole 1-100 μM, 48 hours
Protocol: as §1

H226 (lung cancer) = assay: MTT tumor cell growth assay; details: H226 cells, lansoprazole 1-100 μM, 48 hours
Protocol: as §1

DAUDI (leukemia) = assay: MTT tumor cell growth assay; details: DAUDI cells, lansoprazole 1-100 μM, 48 hours
Protocol: as §1

[1] = MTT tumor cell growth assay; details: MCF7 cells, lansoprazole 1-100 μM, 48 hours
Protocol: as §1

HL60 clone 15 (leukemia) = assay: MTT tumor cell growth assay; details: HL60 clone 15 cells, lansoprazole 1-100 μM, 48 hours
Protocol: as §1

HOP-62 (lung cancer) = assay: MTT tumor cell growth assay; details: HOP-62 cells, lansoprazole 1-100 μM, 48 hours
Protocol: as §1

MC116 (leukemia) = assay: MTT tumor cell growth assay; details: MC116 cells, lansoprazole 1-100 μM, 48 hours
Protocol: as §1

A3 (colon cancer) = assay: MTT tumor cell growth assay; details: A3 cells, lansoprazole 1-100 μM, 48 hours
Protocol: as §1

Measured: tumor cell growth reduction

Cc1c(OCC(F)(F)F)ccnc1C[S+]([O-])c1nc2ccccc2[nH]1 (stereo not shown) [lansoprazole]
significant tumor cell growth reduction: all assays above
